Measurements published in patent publication US10106684B2, “Method for making Schiff base” (KING FAHD UNIVERSITY OF PETROLEUM AND MINERALS, priority 2016, dated 2018).

Experiment: Fluorescence titration of compound 1 with Cu^2+ (Stern-Volmer plot, detection limit)
Type: binding
Protocol: All of the absorption and emission studies were carried out in mixed aqueous solutions of water and methanol (4:1) containing HEPES buffer (10 mM, pH 7.4) at a concentration of 20 μM and 0.2 μM respectively. Emission studies were carried out by addition of 10 equiv of various biologically and non-biologically relevant metal cations to an aqueous-MeOH (4:1) solution of compound 1 at a concentration level of 0.2 μM and their complexation abilities were studies by fluorescence. […] Importantly, none of the other cations induced any such distinct emission shift or quenching (FIG. 7). […] Fluorescence titration of compound 1 with Cu^2+ was carried out in aqueous MeOH (4:1) solution at a concentration level of 0.2 μM. The addition of Cu^2+ to the solution of compound 1 caused a complete quenching of the fluorescent emission and the peak at 525 nm (Φ=0.32) is “switched off” when excited at 502 nm (FIG. 9). […]
Thus, it can be assumed that the quenching of the fluorescence of compound 1 by Cu^2+ ion is a static quenching mode due to the formation of a non-fluorescent complex in the ground state. […] From the Stern-Volmer linear plot (FIG. 14) the binding constant of compound 1 with Cu^2+ was calculated to be 1.0×10^7 L·mol^−1 (error limits≤10%).

Cn1ccnc1/C=N/N1C(=O)c2ccccc2C12c1ccc(O)cc1Oc1cc(O)ccc12 [compound 1, Fluorescein-N-methylimidazole conjugate]
effect of Cu^2+ on fluorescence emission at 525 nm (0.2 μM compound, excitation 502 nm): completely quenched
binding constant with Cu^2+ from Stern-Volmer linear plot (H2O:MeOH (4:1), HEPES 10 mM, pH 7.4, λex=502 nm, error limits≤10%): 1e+07 L/mol
